Test results published in US8273761B2, “Tricyclic compound and medical use thereof” (Takeda Pharmaceutical Company Limited, priority 2006, dated 2012).

Target: T1, human melatonin 1 receptors (human MT1 receptors) (Homo sapiens, UniProt P48039)
T1 construct: expressed in transfected cells
Experiment: Melatonin receptor binding inhibitory test (MT1)
Conditions: 2-[125I] Iodomelatonin 400 pM solution, membrane fraction of CHO-hMelR7 cells, 25° C. for 2.5 hr
Experimental: Biochim Biophys Acta. Vol. 1219(2), pp. 251-259, 1994) to give plasmid pAKKO-hMelR7 for animal cell expression. CHO/dhfr-cells (ATCC, #CRL-9096) were plated at a concentration of 0.3×10^6 cells/dish in a 6 cm culture dish (Becton Dickinson), and cultured under the conditions of 37° C., 5% CO2 for 48 hr. The cells were transfected with pAKKO-hMelR7 plasmid DNA (5 μg) using […] Transfection Kit (Amersham, #27-9268-01). The transfected cells were cultured in Dulbecco's modified Eagle medium (DMEM) (Sigma, #D6046) containing 10% dialyzed FBS ([…]), 1× Non-Essential Amino Acid (Invitrogen, #11140-050) and 50 μg/mL Gentamycin (Invitrogen, #15750-060), and the cell line that stably expressed the plasmid gene was selected. By a receptor binding assay using 2-[^125I] […] (3) Preparation of Cellular Membrane Fraction of CHO Cell (CHO-hMelR7 and CHO-hMT2) Stably Expressing Human MT1 and MT2 Receptors CHO-hMelR7 and CHO-hMT2 cells were plated using Cellfactory (Nunc, #170009) under the conditions of 1×10^8 cells/2000 mL/flask. The cells were grown to confluent, and recovered by the following method. As the medium for CHO-hMelR7 and CHO-hMT2, MEM α containing 10% FBS and penicillin/streptomycin was used. 300 ng/mL of geneticin was added to the medium for CHO-hMT2. The medium was discarded, cells were washed twice with 200 mL of EDTA/PBS(-), 200 mL of EDTA/PBS(-) was further added, and the cells were stood still at room temperature for 20 min until they were released. The cells were recovered in four 50 mL tubes (Becton Dickinson, #352070), and centrifuged at 1,500 rpm for 10 min at 4° C. using a low speed cooling centrifuge (Hitachi, CF7D2). The supernatant was discarded, the pellets in the four tubes were suspended in 10 mL of PBS(-), and combined in one tube (Becton Dickinson, #352070). The mixture was further centrifuged at 1,500 rpm for 10 min at 4° C., and the obtained pellets were suspended in 20 mL of ice-cooled homogenizing buffer [10 mM NaHCO3, 5 mM EDTA, Protease inhibitor Complete (Roche), pH 7.4]. The cell suspension was homogenized 3 times using a polytron homogenizer at 20,000 rpm for 30 sec. The obtained homogenate was centrifuged (2,000 rpm, 10 min, 4° C.) using a low speed cooling centrifuge. The supernatant was recovered in an ultracentrifugation tube and ultracentrifuged (40,000 rpm, 60 min, 4° C.) using an ultracentrifuge (Beckman, […]). To the obtained pellets was added a suspending buffer [50 mM Tris-HCl, 1 mM EDTA, Protease inhibitor Complete (Roche), pH 7.4], and the pellets were suspended by pipetting. The protein concentration of this suspension was measured, diluted to 2 mg/mL to give cellular membrane fractions of CHO-hMelR7 and CHO-hMT2 cells. […] Protein was quantified using BCA protein assay kit (Pierce) with BSA as the standard. (4) Preparation of Membrane Fraction Suspension Immediately before use, the membrane fractions of CHO-hMelR7 and CHO-hMT2 cells of the above-mentioned (3) were diluted 20-fold with assay buffer (50 mM Tris-HCl, pH 7.7). (5) Preparation of 2-[^125I] […] (6) Binding Reaction The assay buffer (80 μL) of the above-mentioned (4) was added to each well of a 96-well plate (type 3363, Corning). […] (7) Measurement Using a cell harvester (PerkinElmer), the binding reaction mixture in each well of the 96-well plate was transferred to a treated (immersed in 50 mM Tris, pH 7.7 in advance) filter plate (UniFilter GF/C, PerkinElmer) and filtered. After filtration, the plate was washed 4 times with the assay buffer, and dried in a dryer (42° C.) for 2 hr or more. 25 μL of a liquid scintillator (MicroScint O, PerkinElmer) was added to each well of the filter plate after drying, and the luminescence of scintillator was measured by TopCount (PerkinElmer) for 1 min. Specific binding is a value obtained by subtracting nonspecific binding from the total binding.

T1 sequence (P48039 whole entry): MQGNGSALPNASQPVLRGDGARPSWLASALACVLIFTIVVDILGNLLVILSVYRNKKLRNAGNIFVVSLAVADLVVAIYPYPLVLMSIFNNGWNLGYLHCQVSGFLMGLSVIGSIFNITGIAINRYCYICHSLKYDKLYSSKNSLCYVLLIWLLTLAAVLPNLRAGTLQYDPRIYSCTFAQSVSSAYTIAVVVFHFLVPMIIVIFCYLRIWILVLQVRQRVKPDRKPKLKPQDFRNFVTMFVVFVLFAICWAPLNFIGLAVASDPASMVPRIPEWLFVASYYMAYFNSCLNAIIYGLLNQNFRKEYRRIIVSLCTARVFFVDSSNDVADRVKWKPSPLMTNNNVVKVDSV

IC50	Compound
≤ 100 nM	CC(=O)NCCC1CCc2cnc3c(c21)CCO3 (single isomer, unassigned) [Example 20, optically active N-[2-(1,6,7,8-tetrahydro-2H-cyclopenta[d]furo[2,3-b]pyridin-8-yl)ethyl]acetamide]
≤ 100 nM	CCC(=O)NCCC1CCc2cnc3c(c21)CCO3 (single isomer, unassigned) [Example 23, optically active N-[2-(1,6,7,8-tetrahydro-2H-cyclopenta[d]furo[2,3-b]pyridin-8-yl)ethyl]propanamide]
≤ 100 nM	CCC(=O)NCCc1c(-c2ccccc2)nn2ccc3occc3c12 [Example 2, N-[2-(2-phenylfuro[3,2-c]pyrazolo[1,5-a]pyridin-1-yl)ethyl]propanamide]
≤ 100 nM	CC(=O)NCCc1cnn2ccc3c(c12)CCO3 [Example 3, N-[2-(8,9-dihydrofuro[3,2-c]pyrazolo[1,5-a]pyridin-1-yl)ethyl]acetamide]
≤ 100 nM	CCC(=O)NCCc1cnn2ccc3c(c12)CCO3 [Example 4, N-[2-(8,9-dihydrofuro[3,2-c]pyrazolo[1,5-a]pyridin-1-yl)ethyl]propanamide]
≤ 100 nM	CCCC(=O)NCCc1cnn2ccc3c(c12)CCO3 [Example 5, N-[2-(8,9-dihydrofuro[3,2-c]pyrazolo[1,5-a]pyridin-1-yl)ethyl]butanamide]
≤ 100 nM	CCC(=O)NCCc1c(-c2ccccc2)nn2ccc3c(c12)CCO3 [Example 8, N-[2-(2-phenyl-8,9-dihydrofuro[3,2-c]pyrazolo[1,5-a]pyridin-1-yl)ethyl]propanamide]
≤ 100 nM	CC(=O)NCCc1c(-c2ccc(F)cc2)nn2ccc3c(c12)CCO3 [Example 15, N-{2-[2-(4-fluorophenyl)-8,9-dihydrofuro[3,2-c]pyrazolo[1,5-a]pyridin-1-yl]ethyl}acetamide]
≤ 100 nM	CCC(=O)NCCc1c(-c2ccc(F)cc2)nn2ccc3c(c12)CCO3 [Example 16, N-{2-[2-(4-fluorophenyl)-8,9-dihydrofuro[3,2-c]pyrazolo[1,5-a]pyridin-1-yl]ethyl}propanamide]
≤ 100 nM	CC(=O)NCCc1c(-c2ccccc2)cn2ccc3c(c12)CCO3 [Example 17, N-[2-(8-phenyl-1,2-dihydrofuro[2,3-g]indolizin-9-yl)ethyl]acetamide]
≤ 100 nM	CCC(=O)NCCC1CCc2cnc3c(c21)CCO3 (stereo not drawn) [Example 22, N-[2-(1,6,7,8-tetrahydro-2H-cyclopenta[d]furo[2,3-b]pyridin-8-yl)ethyl]propanamide]
≤ 100 nM	CCCC(=O)NCCC1CCc2cnc3c(c21)CCO3 (stereo not drawn) [Example 25, N-[2-(1,6,7,8-tetrahydro-2H-cyclopenta[d]furo[2,3-b]pyridin-8-yl)ethyl]butanamide]
≤ 100 nM	CCC(=O)NCCC1=CCc2cnc3c(c21)CCO3 [Example 29, N-[2-(1,6-dihydro-2H-cyclopenta[d]furo[2,3-b]pyridin-8-yl)ethyl]propanamide]
≤ 100 nM	CC(=O)NCCC1=C(C(C)C)Cc2cnc3c(c21)CCO3 [Example 30, N-[2-(7-isopropyl-1,6-dihydro-2H-cyclopenta[d]furo[2,3-b]pyridin-8-yl)ethyl]acetamide]
≤ 100 nM	CCC(=O)NCCC1=C(C(C)C)Cc2cnc3c(c21)CCO3 [Example 31, N-[2-(7-isopropyl-1,6-dihydro-2H-cyclopenta[d]furo[2,3-b]pyridin-8-yl)ethyl]propanamide]
≤ 100 nM	CCc1nn2ccc3c(c2c1C(C)CNC(C)=O)CCO3 (stereo not drawn) [Example 37, N-[2-(2-ethyl-8,9-dihydrofuro[3,2-c]pyrazolo[1,5-a]pyridin-1-yl)propyl]acetamide]
≤ 100 nM	CCC(=O)NCC(C)c1c(CC)nn2ccc3c(c12)CCO3 (stereo not drawn) [Example 38, N-[2-(2-ethyl-8,9-dihydrofuro[3,2-c]pyrazolo[1,5-a]pyridin-1-yl)propyl]propanamide]
≤ 100 nM	CCc1nn2ccc3oc(C)cc3c2c1CCNC(C)=O [Example 39, N-[2-(2-ethyl-8-methylfuro[3,2-c]pyrazolo[1,5-a]pyridin-1-yl)ethyl]acetamide]
